US20100144733A1, “Compounds, compositions and methods comprising heteroaromatic derivatives” (Institute for OneWorld Health, priority 2008, published 2010)

Target: T1, CFTR (Homo sapiens, UniProt P13569)
T1 construct: endogenous in cells; host or cells: T84 human colonic cells (ECACC)
Assay: T84 assay (FLIPR membrane potential dye, forskolin/IBMX-stimulated CFTR channel activity)
Format: cell-based
Details: imidazole and triazole-containing compounds (Tables 13, 14, 14′), read-out: IC50 (μM) (T84 assay)
Procedure: (§1) For example, Human colonic T84 cells can be acquired from the European Collection of Cell Cultures (ECACC) and grown in standard culture conditions as described by the supplier. On the day before assay 25,000 T84 cells per well are plated into standard black walled, clear bottom 384-well assay plates in standard growth medium consisting of DMEM:F12 with 10% FBS and incubated overnight. On the day of the assay the plates are washed using a standard assay buffer (HBSS with 10 mM Hepes) and incubated for 15 minutes in serum free cell culture medium before the addition of a commercially available membrane potential sensitive fluorescent dye (FLIPRRed membrane potential dye, Molecular Devices Corporation). T84 cells are incubated with the FLIPRRed membrane potential dye for 45 minutes in the presence and absence of test compound before being transferred to a commercially available fluorescence imaging plate reader (FLIPR384, Molecular Devices Corporation). Fluorescence levels are monitored continuously every second for 150 seconds; after an initial 10 second baseline, CFTR channel activity is stimulated through the addition of 10 μM forskolin in the presence of 100 μM of the phosphodiesterase inhibitor iso-butyl-methylxanthine (IBMX). Addition of the forskolin leads to the activation of intracellular adenylyl cylase 1, elevating cAMP levels and results in the phosphorylation and opening of CFTR anion channels. CFTR channel opening causes chloride ion efflux and subsequent depolarization of the cells, which is measured by an increase in fluorescence. CFTR inihibitor compounds prevent cell depolarization and the associatred increase in fluorescence.
as §1, with “Human colonic” for “For example, Human colonic”, “T84 cells are acquired from” for “T84 cells can be acquired from”, “(ECACC) and are grown in” for “(ECACC) and grown in”, “10 μM Forskolin in the” for “10 μM forskolin in the”, “fluorescence. CFTR inhibitor compounds prevent” for “fluorescence. CFTR inihibitor compounds prevent”, “and the associated increase in” for “and the associatred increase in”

T1 sequence (P13569 whole entry): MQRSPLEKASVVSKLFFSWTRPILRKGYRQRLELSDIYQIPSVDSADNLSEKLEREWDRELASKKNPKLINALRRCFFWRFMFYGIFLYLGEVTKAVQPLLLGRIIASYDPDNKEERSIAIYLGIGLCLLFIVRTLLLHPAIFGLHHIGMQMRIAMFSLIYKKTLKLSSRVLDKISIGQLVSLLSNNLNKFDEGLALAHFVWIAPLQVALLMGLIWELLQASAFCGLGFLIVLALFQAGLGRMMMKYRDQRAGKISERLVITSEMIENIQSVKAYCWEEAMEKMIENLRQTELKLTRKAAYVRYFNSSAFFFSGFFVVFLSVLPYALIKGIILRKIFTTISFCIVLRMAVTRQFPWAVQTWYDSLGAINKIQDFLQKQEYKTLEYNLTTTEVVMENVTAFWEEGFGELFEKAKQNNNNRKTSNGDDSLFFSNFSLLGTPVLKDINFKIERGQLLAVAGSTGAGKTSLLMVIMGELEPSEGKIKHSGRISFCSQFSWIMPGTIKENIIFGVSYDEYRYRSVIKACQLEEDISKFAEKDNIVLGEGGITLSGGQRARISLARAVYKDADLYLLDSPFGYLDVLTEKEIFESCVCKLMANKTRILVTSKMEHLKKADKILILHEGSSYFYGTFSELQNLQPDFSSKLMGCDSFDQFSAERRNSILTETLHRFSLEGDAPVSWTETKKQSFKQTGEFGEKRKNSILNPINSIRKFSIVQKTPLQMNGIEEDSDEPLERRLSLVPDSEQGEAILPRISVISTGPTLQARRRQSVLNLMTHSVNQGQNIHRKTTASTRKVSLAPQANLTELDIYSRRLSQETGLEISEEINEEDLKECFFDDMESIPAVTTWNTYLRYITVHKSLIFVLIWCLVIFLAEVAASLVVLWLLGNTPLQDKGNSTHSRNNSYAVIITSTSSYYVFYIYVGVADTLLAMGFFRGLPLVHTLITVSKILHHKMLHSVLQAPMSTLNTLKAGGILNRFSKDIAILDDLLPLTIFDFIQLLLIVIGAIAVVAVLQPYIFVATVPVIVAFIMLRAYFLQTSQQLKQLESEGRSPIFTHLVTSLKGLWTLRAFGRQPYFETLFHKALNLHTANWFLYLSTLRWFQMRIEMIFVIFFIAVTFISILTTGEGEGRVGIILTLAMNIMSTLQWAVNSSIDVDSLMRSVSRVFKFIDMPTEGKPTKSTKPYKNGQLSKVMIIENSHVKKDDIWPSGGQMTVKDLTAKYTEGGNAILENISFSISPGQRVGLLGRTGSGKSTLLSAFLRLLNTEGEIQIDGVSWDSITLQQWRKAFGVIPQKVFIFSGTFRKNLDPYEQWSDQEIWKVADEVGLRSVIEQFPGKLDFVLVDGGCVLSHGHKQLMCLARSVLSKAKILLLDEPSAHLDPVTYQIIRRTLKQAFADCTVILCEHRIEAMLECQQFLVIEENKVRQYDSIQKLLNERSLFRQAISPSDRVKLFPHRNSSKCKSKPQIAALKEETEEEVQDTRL

| SMILES | IC50 [µM] |
| --- | --- |
| O=C(c1ncn(-c2cc(Cl)c(O)c(Cl)c2)n1)N1CCC(Cc2ccccc2)CC1 [5i, (4-benzylpiperidin-1-yl)(1-(3,5-dichloro-4-hydroxyphenyl)-1H-1,2,4-triazol-3-yl)methanone] | 15.9 |

Same assay, conditions: isoxazole-containing compounds (Table 10, 10′, 11, 11′), read-out: IC50

| SMILES | IC50 [µM] |
| --- | --- |
| CN(Cc1ccccc1)C(=O)c1cc(-c2cc(Br)c(O)c(Br)c2)on1 [1g, N-Benzyl-5-(3,5-dibromo-4-hydroxyphenyl)-N-methylisoxazole-3-carboxamide] | 7.65 |
| CN(Cc1cccc(C(F)(F)F)c1)C(=O)c1cc(-c2cc(Br)c(O)c(Br)c2)on1 [3g, 5-(3,5-dibromo-4-hydroxyphenyl)-N-methyl-N-(3-(trifluoromethyl)benzyl)isoxazole-3-carboxamide] | 16.6 |
| CN(Cc1ccc2c(c1)OCO2)C(=O)c1cc(-c2cc(Br)c(O)c(Br)c2)on1 [4g, N-(benzo[d][1,3]dioxol-5-ylmethyl)-5-(3,5-dibromo-4-hydroxyphenyl)-N-methylisoxazole-3-carboxamide] | 19 |
| CN(Cc1ccc(Cl)cc1)C(=O)c1cc(-c2cc(Br)c(O)c(Br)c2)on1 [5g, N-(4-chlorobenzyl)-5-(3,5-dibromo-4-hydroxyphenyl)-N-methylisoxazole-3-carboxamide] | 5.31 |
| CN(Cc1cccc(C(F)(F)F)c1)C(=O)c1cc(-c2cc(Cl)c(O)c(Cl)c2)on1 [6g, 5-(3,5-dichloro-4-hydroxyphenyl)-N-methyl-N-(3-(trifluoromethyl)benzyl)isoxazole-3-carboxamide] | 7.02 |

Same assay, conditions: oxadiazole-containing compounds (a series), average of at least 2 runs unless annotated n = 1, read-out: IC50

| SMILES | IC50 [µM] |
| --- | --- |
| O=C(c1nc(-c2cc(Br)c(O)c(Br)c2)no1)N(Cc1cccnc1)Cc1cccc(C(F)(F)F)c1 [2a, 3-(3,5-dibromo-4-hydroxyphenyl)-N-(pyridin-3-ylmethyl)-N-(3-(trifluoromethyl)benzyl)-1,2,4-oxadiazole-5-carboxamide] | 1.03 |
| CN(C(=O)c1nc(-c2cc(Br)c(O)c(Br)c2)no1)c1ccc(OC(F)(F)F)cc1 [3a, 3-(3,5-dibromo-4-hydroxyphenyl)-N-methyl-N-(4(trifluoromethoxy)phenyl)-1,2,4-oxadiazole-5-carboxamide] | 2.62 |
| O=C(c1nc(-c2cc(Br)c(O)c(Br)c2)no1)N1CCN(c2ccc(Cl)c(C(F)(F)F)c2)CC1 [4a, (4-(4-chloro-3-(trifluoromethyl)phenyl)piperazin-1-yl)(3-(3,5-dibromo-4-hydroxyphenyl)-1,2,4-oxadiazol-5-yl)methanone] | 4.72 |
| O=C(NC(c1ccccc1)c1ccccc1)c1nc(-c2cc(Br)c(O)c(Br)c2)no1 [5a, N-benzhydryl-3-(3,5-dibromo-4-hydroxyphenyl)-1,2,4-oxadiazole-5-carboxamide] | 5.23 |
| O=C(c1nc(-c2cc(Br)c(O)c(Br)c2)no1)N1CCN(c2cccc(C(F)(F)F)c2)CC1 [6a, (3-(3,5-dibromo-4-hydroxyphenyl)-1,2,4-oxadiazol-5-yl)(4-(3-(trifluoromethyl)phenyl)piperazin-1-yl)methanone] | 6.19 |

Same assay, conditions: thiadiazole-containing compounds (Table 12), read-out: IC50

| SMILES | IC50 [µM] |
| --- | --- |
| Oc1c(Cl)cc(-c2nnc(Cc3cccc(Cl)c3)s2)cc1Cl [1h, 2,6-dichloro-4-(5-(3-chlorobenzyl)-1,3,4-thiadiazol-2-yl)phenol] | 5.65 |
| Oc1c(Cl)cc(-c2nnc(COc3ccc(F)cc3Cl)s2)cc1Cl [2h, 2,6-dichloro-4(5-((2-chloro-4-fluorophenoxy)methyl)-1,3,4-thiadiazol-2-yl)phenol] | 5.65 |
| Oc1c(Cl)cc(-c2nnc(CN3c4ccccc4Sc4ccccc43)s2)cc1Cl [3h, 4-(5-((10H-Phenothiazin-10-yl)methyl)-1,3,4-thiadiazol-2-yl)-2,6-dichlorophenol] | 6.57 |
| Cc1cc(Cl)ccc1OCc1nnc(-c2cc(Cl)c(O)c(Cl)c2)s1 [4h, 2,6-dichloro-4(5-((4-chloro-2-methylphenoxy)methyl)-1,3,4-thiadiazol-2-yl)phenol] | 12.7 |
| Oc1c(Cl)cc(-c2nnc(-c3snnc3-c3ccccc3)s2)cc1Cl [5h, 2,6-dichloro-4(5-(4-phenyl-1,2,3-thiadiazol-5-yl)-1,3,4-thiadiazol-2-yl)phenol] | 13.4 |
